Test results reported in patent US20070108405A1, “Compositions and methods for delivery of biologically active agents” (FH FAULDING & CO., LTD., priority 2003, published 2007).
Marks after values point to notes of the source that are not given here.

Assay: Solubility of active agents in surfactants (saturation, HPLC)
Assay type: physicochemical
Conditions: 40° C., mean of three ± SD unless a (single) or b (duplicate); for Solubility Irinotecan HCl: irinotecan HCl in the surfactant; for Solubility Irinotecan base: irinotecan base in the surfactant; for Solubility Paclitaxel: paclitaxel in the surfactant
Method: In order for the surfactants to be useful as components of the delivery system, it is important to be able to dissolve biologically active agents in the surfactant or in the water. Table 3 illustrates that the surfactants are useful for dissolving three pharmaceutical compounds that may potentially be delivered using the invention. Solubility was determined by saturation of the surfactant with solid drug at 40° C. until saturation is achieved. Drug level was determined by reverse phase HPLC. Values given are the mean of three separate samples±standard deviation, unless denoted otherwise.

Row | Structure (SMILES) | Solubility Irinotecan HCl | Solubility Irinotecan base | Solubility Paclitaxel
1 | CC(C)CCCC(C)CCCC(C)CCCC(C)CCN(CCO)C(N)=O (centres unmarked) [1-(3,7,11,15-tetramethyl-hexadecyl)-1-(2-hydroxyethyl)urea] | 0.43 ± 0.20 mg/g | 0.35 ± 0.001 mg/g | 0.87 ± 0.18 mg/g
2 | CC(C)CCCC(C)CCCC(C)CCCC(C)CCNC(=O)NCCO (centres unmarked) [1-(3,7,11,15-tetramethyl-hexadecyl)-3-(2-hydroxyethyl)urea] | 4.36 ± 0.30 mg/g | 0.94 ± 0.02 mg/g | 5.67 ± 1.64 mg/g
3 | CC(C)CCCC(C)CCCC(C)CCCC(C)CCOC(=O)C(O)CO (centres unmarked) [2,3-Dihydroxypropionic acid 3,7,11,15-tetramethyl-hexadecyl ester] | 4.33 ± 0.37 mg/g | 64.54 ± 4.65 mg/g | 4.83 ± 0.83 mg/g
4 | CC(C)CCCC(C)CCCC(C)CCOC(=O)C(O)CO (centres unmarked) [2,3-Dihydroxypropionic acid 3,7,11-trimethyl-dodecyl ester] | 4.58^a mg/g | 3.92^b mg/g | 7.25^b mg/g
5 | CCCCCCCCC=CCCCCCCCCOC(=O)C(O)CO (centres unmarked) [2,3-Dihydroxypropionic acid octadec-9-enyl ester] | 9.69 ± 0.74 mg/g | 35.66 ± 1.26 mg/g | 8.43 ± 0.23 mg/g
6 | CC(C)CCCC(C)CCCC(C)CCCC(C)CCNC(N)=O (centres unmarked) [3,7,11,15-Tetramethyl-hexadecyl urea] | 1.63 ± 0.64 mg/g | 0.44 ± 0.11 mg/g | 7.85 ± 1.93 mg/g
7 | CC(C)CCCC(C)CCCC(C)CCCC(C)CC(=O)OCC(O)CO (centres unmarked) [3,7,11,15-tetramethyl-hexadecanoic acid 1-glycerol ester] | – | 6.22^a mg/g | 6.66^a mg/g
8 | CC(C)CCCC(C)CCCC(C)CCNC(N)=O (centres unmarked) [3,7,11-Trimethyl-dodecyl urea] | 33.83 ± 5.98 mg/g | 3.76 ± 0.45 mg/g | 34.65 ± 2.34 mg/g
